The source of these data is US5008290A, “Sulphonamidoethyl compounds and pharmaceutical compositions comprising these compounds” (Dr. Karl Thomae GmbH, priority 1986, dated 1991).

For one series, the system named is mice. The series can be described thus: Acute toxicity after oral administration of a single dose. Type of series: in vivo. The following applies: observation period 14 days; for animals died (mortality): single dose 500 mg/kg; for Approximate acute toxicity: single dose, groups of 10. Here is the method: The acute toxicity of the substances being tested was determined approximately in groups of 10 mice after oral administration of a single dose (observation period 14 days): […]

Series [1] concerns platelet-rich plasma of healthy test subjects. The series can be described thus: Antithrombotic activity: collagen-induced thrombocyte aggregation (BORN and CROSS method). The format is cell-based. The following applies: Homo sapiens, 10 min, plasma incubated for 10 minutes with the substance at 37° C., read-out: EC50 (50% change in the "optical density" in terms of an inhibition of aggregation). As to the method: Thrombocyte aggregation is measured using the BORN and CROSS method (J. Physiol. 170, 397 (1964)) in the platelet-rich plasma of healthy test subjects. To inhibit coagulation, 3.14% sodium citrate is added to the blood in a ratio by volume of 1:10.
The pattern of the decrease in optical density of the platelet suspension is photometrically measured and recorded after the addition of aggregation-inducing substance. The rate of aggregation is determined from the angle of inclination of the density curve. The point on the curve at which there is maximum transmittance is used to calculate the "optical density".
The quantity of collagen is kept as small as possible but sufficient to produce an irreversible reaction curve. The standard commercial collagen produced by Hormonchemie of Munich is used. Before the addition of collagen, the plasma is incubated for 10 minutes with the substance at 37° C.
From the measurements obtained, an EC50 is determined graphically, showing a 50% change in the "optical density" in terms of an inhibition of aggregation.

In general, EC50 refers to the midpoint of the concentration-response curve. Regarding `Cn1c(CCNS(=O)(=O)c2ccccc2)ccc1C(=O)CCC(=O)O` [Substance A, 4-[2-(2-Benzenesulphonylamino-ethyl)-1-methylpyrrol-5-yl]-4-oxybutyric acid], in the series on mice, the “animals died (mortality)” value is 0 out of 10 animals and the Approximate acute toxicity is listed as 500 mg/kg. Besides, in series [1], the EC50 was determined as 3500 nM.
For `Cn1c(CCNS(=O)(=O)c2ccc(Cl)cc2)ccc1C(=O)CCC(=O)O` [Substance B, 4-[2-(2-(p-chlorobenzenesulphonylamino)-ethyl)-1-methylpyrrol-5-yl]-4-oxybutyric acid], in that order: 0 out of 10 animals, 500 mg/kg and 400 nM.
On to `Cn1c(CCNS(=O)(=O)c2cccs2)ccc1C(=O)CCC(=O)O` [Substance C, 4-[2-(2-thiophen-2-yl-sulphonylamino-ethyl)-1-methylpyrrol-5-yl]-4-oxybutyric acid], for which, in the series with mice, the “animals died (mortality)” value is reported as 0 out of 10 animals and the Approximate acute toxicity was 500 mg/kg. Besides, the EC50 in series [1] stood at 390 nM.
For `Cn1c(CCNS(=O)(=O)c2ccc(F)cc2)ccc1C(=O)CCC(=O)O` [Substance D, 4-[2-(2-(p-Fluorobenzenesulphonylamino)-ethyl)-1-methylpyrrol-5-yl]-4-oxybutyric acid], in that order: 0 out of 10 animals, 500 mg/kg and 360 nM.
The corresponding values for `Cn1c(CCNS(=O)(=O)c2ccccc2)ccc1C1=NNC(=O)CC1` [Substance E, 6-[2-(2-Benzenesulphonylamino-ethyl)-1-methylpyrrol-5-yl]-4,5-dihydro-3(2H)-pyridazinone] are 0 out of 10 animals, 500 mg/kg and 2900 nM.
